Laboratory results as given in patent US8114865B2, “Indazole derivatives as kinase inhibitors for the treatment of cancer” (Nerviano Medical Sciences S.R.L., priority 2006, dated 2012).
pIC50: −log10 of the molar value.

How the values were obtained:
Aurora-2 = biological target: T1, Aurora-2 (Homo sapiens, UniProt O14965); test: Biochemical assay for inhibitors of Aurora-2 kinase activity; details: read-out: Aur2 IC50
T1 sequence (O14965 1-403): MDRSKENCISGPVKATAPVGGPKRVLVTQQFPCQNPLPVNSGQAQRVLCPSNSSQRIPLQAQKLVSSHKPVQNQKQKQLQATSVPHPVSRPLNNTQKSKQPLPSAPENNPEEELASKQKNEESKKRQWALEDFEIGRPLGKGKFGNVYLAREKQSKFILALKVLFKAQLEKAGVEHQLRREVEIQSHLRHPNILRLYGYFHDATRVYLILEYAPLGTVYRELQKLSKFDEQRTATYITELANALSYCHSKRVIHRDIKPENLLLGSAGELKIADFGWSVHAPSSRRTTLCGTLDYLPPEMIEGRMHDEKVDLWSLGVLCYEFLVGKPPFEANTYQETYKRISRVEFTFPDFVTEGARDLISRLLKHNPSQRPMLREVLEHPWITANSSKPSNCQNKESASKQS
Experimental: The in vitro kinase inhibition assay was conducted mimilarly as described for IGF-1R.
The kinase buffer was composed of 50 mM HEPES, pH 7.0, 10 mM MgCl2, 1 mM DTT, 3 microM Na3VO4, and 0.2 mg/mL BSA.
The kinase assay was run with an enzyme concentration of 2.5 nM, 10 microM ATP, 1 nM ^33P-γ-ATP, and 8 microM substrate, composed of 4 LRRWSLG repeats.

IGF-1R = IGF-1R (Homo sapiens, UniProt P08069); test: Biochemical assay for inhibitors of IGF-1R kinase activity (trans-phosphorylation, Dowex); parameters: amino acid residues 960-1367 of precursor protein; made in house; host or cells: H5 insect cells (baculovirus; virus generated in Sf21); details: read-out: IGF1R IC50
Experimental: Human cDNA was used as template for amplification by polymerase chain reaction (PCR) of the predicted cytoplasmic portion of IGF-1R (amino acid residues 960-1367 of precursor protein; see NCBI Entrez Protein Accession #P08069) which includes the entire kinase domain. PCR was conducted using the forward primer sequence 5′-[…]-3′ [SEQ ID NO: 1] and the reverse primer sequence 5′-[…]-3′[SEQ ID NO: 2].
In order to facilitate subsequent cloning steps, both primers comprise a BamHI restriction endonuclease site sequence. This PCR product was cloned in frame using BamHI sticky ends into a transfer vector for the baculovirus expression system, pVL1392 (Pharmingen), previously modified by insertion into the pVL1392 multiple cloning site of sequences encoding Glutathione S-transferase (GST) fusion protein, PreScission protease cleavage site and partial MCS cassette derived from the pGex-6P plasmid (Amersham BioSciences). Insertion of the IGF-1R PCR product described above into the pGex-6P derived BamHI site of the modified pVL1392 vector results in an open reading frame corresponding to the pGEX-6P GST protein and PreScission peptide fused with the human IGF-1R cytoplasmic domain. In order to obtain fusion protein, Sf21 insect cells (Invitrogen) are cotransfected with 2 microg of purified plasmid and 1 microg of virus DNA (BaculoGold™ Transfection Kit, Pharmingen), as described in the Baculovirus Instruction manual (Pharmingen). A first amplification of the virus is performed using 600 microL of cotransfected virus on 6×10^6 Sf21 in a monolayer culture, in 12 mL of medium (TNM-FH Grace's medium—Pharmingen). After 3 days the medium is collected, centrifuged and transferred to a sterile tube. A second amplification is prepared with the same method using 2 mL on 3×10^7 cells, diluted in 40 mL of medium. For the third amplification of virus, 1 mL of supernatant from the second round are used per 3×10^7 cells diluted in 40 mL of medium. […]
The inhibitory activity of putative kinase inhibitors and the potency of selected compounds were determined using a trans-phosphorylation assay. […]

Sequence of IGF-1R (P08069 960-1367): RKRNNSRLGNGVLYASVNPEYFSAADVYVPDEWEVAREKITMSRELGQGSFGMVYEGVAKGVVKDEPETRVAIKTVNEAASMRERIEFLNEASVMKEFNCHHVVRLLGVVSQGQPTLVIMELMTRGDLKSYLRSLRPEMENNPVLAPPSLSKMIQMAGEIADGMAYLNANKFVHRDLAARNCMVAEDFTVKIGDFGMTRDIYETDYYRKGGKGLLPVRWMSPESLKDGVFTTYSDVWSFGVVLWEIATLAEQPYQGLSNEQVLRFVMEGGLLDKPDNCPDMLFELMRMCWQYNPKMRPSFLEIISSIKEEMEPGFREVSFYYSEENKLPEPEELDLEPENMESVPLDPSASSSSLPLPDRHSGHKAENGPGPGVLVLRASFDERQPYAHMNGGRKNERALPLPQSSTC

pIC50 (Aurora-2)	pIC50 (IGF-1R)	Structure (SMILES)
7.59	6.07	CN1CCN(c2ccc(C(=O)Nc3n[nH]c4ccc(S(=O)(=O)c5ccccc5)cc34)cc2)CC1 [Compound 1, N-(5-Benzenesulfonyl-1H-indazol-3-yl)-4-(4-methyl-piperazin-1-yl)-benzamide]
8.05	7.44	CN1CCN(c2ccc(C(=O)Nc3n[nH]c4ccc(S(=O)(=O)c5ccccc5)cc34)c(NC(=O)c3ccc[nH]3)c2)CC1 [Compound 33, 1H-pyrrole-2-carboxylic acid [2-(5-benzenesulfonyl-1H-indazol-3-ylcarbamoyl)-5-(4-methyl-piperazin-1-yl)-phenyl]amide]
7.72	6.64	CN1CCN(c2ccc(C(=O)Nc3n[nH]c4ccc(S(=O)(=O)c5ccccc5)cc34)c(NC(=O)[C@@H]3CCCO3)c2)CC1 [Compound 36, (S)-Tetrahydro-furan-2-carboxylic acid [2-(5-benzenesulfonyl-1H-indazol-3-ylcarbamoyl)-5-(4-methyl-piperazin-1-yl)-phenyl]-amide]
